Patent publication US8003375B2, “Qualitative differential screening” (ExonHit Therapeutics S.A., priority 1998, dated 2011)

Columns and labels:
HepG2 cells [1] = assay: Cytotoxicity tests (trypan blue, MTT) and apoptosis test (Cell Death ELISA, DNA fragmentation) on HepG2 cells
Protocol: (§1) The effects of toxic compounds on RNA splicing regulation defects were tested as follows. HepG2 hepatocyte cells were treated with different doses of three toxic compounds (ethanol, camptothecin, PMA (phorbol 12-myristate 13-acetate)). Two cytotoxicity tests (trypan blue, MTT) were performed at different time points: 4 h and 18 h for ethanol; 4 h and 18 h for camptothecin; 18 h and 40 h for PMA.
(§2) Trypan blue is a dye that can be incorporated by […] cells. […] The experimental points are determined in triplicate.
(§3) The MTT test is a colorimetric test measuring the capacity of living cells to convert soluble tetrazolium salts (MTT) into an insoluble formazan precipitate. These dark blue formazan crystals can be dissolved and their concentration determined by measuring absorbance at 550 nm. Thus, after overnight seeding of 24-well dishes with 150,000 cells, followed by treatment of the cells with the toxic compounds, 50 μl of MTT (Sigma) are added (at a concentration of 5 mg/ml in PBS). The formazan crystal formation reaction is carried out for 5 h in a CO2 incubator (37° C., 5% CO2, 95% humidity). After addition of 500 μl of solubilization solution (0.1 N HCl in isopropanol-Triton X-100 (10%)), the crystals are dissolved with stirring and their absorbance is measured at 550 to 660 nm. Determinations are done in triplicate with suitable controls (viability, cell death, blanks).
(§4) A test of apoptosis or programmed cell death was also performed by measuring DNA fragmentation with an anti-histone antibody and ELISA. The Cell Death ELISA Plus from Roche was used.

[2] = system: MACH-α (Caspase-8) isoforms; assay: RT-PCR of MACH-α isoforms in treated HepG2 cells; format: cell-based, human; settings: camptothecin 1 μg/ml, 4 h, RT-PCR (FIG. 19)
Protocol: HepG2 cells were thus treated with these three concentrations of these three compounds for 4 h in the case of ethanol and camptothecin and for 18 h in the case of PMA. Messenger RNAs were purified on Dynal-Oligo-(dT) beads starting from total RNAs purified with the Rneasy kit (Quiagen). cDNA was synthesized from these messenger RNAs using Superscript reverse transcriptase (Life Technologies) and random hexamers as primers
These initial strands served as templates for PCR amplification reactions (94° C. 1 min, 55° C. 1 min, 72° C. 1 min, 30 cycles) by means of the following oligonucleotide primers: […]
These primers correspond to the regions common to the different described isoforms of MACH-α (1, 2 and 3, respectively amplifying 595, 550 and 343 base pairs). MACH-α (Caspase-8) is a protease involved in programmed cell death (Boldin et al., (1996), Cell, 85: 803-815).

FASR isoforms = assay: RT-PCR of FASR isoforms in treated HepG2 cells; format: cell-based, human; settings: 4 h, RT-PCR (FIG. 19)
Protocol: (§5) HepG2 cells were thus treated with these three concentrations of these three compounds for 4 h in the case of ethanol and camptothecin and for 18 h in the case of PMA. […] These initial strands served as templates for PCR amplification reactions (94° C. 1 min, 55° C. 1 min, 72° C. 1 min, 30 cycles) by means of the following oligonucleotide primers: [table] These primers correspond to the regions common to certain FASR isoforms and should amplify a 478 base pair fragment for wild type form FasR, 452 base pairs for isoform Δ8 and 415 for isoform ΔTM.

[3] = Cytotoxicity tests (trypan blue, MTT) and apoptosis test (Cell Death ELISA, DNA fragmentation) on HepG2 cells; settings: human
Protocol: as §1, §2, §3, §4

bcl-X isoforms = assay: RT-PCR of BCL-X isoforms in treated HepG2 cells; format: cell-based, human; settings: 4 h, RT-PCR (FIG. 19)
Protocol: as §5, with “the different described” for “certain FASR”, “isoforms of bcl-X (bcl-XI, bcl-Xs, BCL-Xβ) (Boise et al., (1993), Cell 74: 597-608; U72398 (Genbank))” for “isoforms”, “single 204” for “478”, “these three isoforms.” for “wild type form FasR, 452 base pairs for isoform Δ8 and 415 for isoform ΔTM.”

HepG2 cells [4] = settings: 0.1 M ethanol for 18 hours (FIG. 9)
From the text: A more complex situation was examined. […] RNAs were extracted from cells that were or were not subjected to treatment. The aforementioned DATAS variant (preparation of biotinylated ss cDNA, cross hybridizations in liquid phase, application of a magnetic field to separate the species, RNase H digestion) was effected with untreated cells in the reference condition (or condition A) and with treated cells in the test condition (or condition B) (FIG. 9). As the extracted RNAs were not radiolabeled, the RNAs generated by RNase H digestion were visualized by carrying out an exchange reaction to replace the RNA 5′ phosphate with a labeled phosphate, by means of T4 polynucleotide kinase and gamma-P^32ATP. These labeled products were then loaded on an acrylamide/urea gel and analyzed by exposure using an Instant Imager (Packard Instruments).

Q: With `CCCCCCCCCCCCCC(=O)O[C@@H]1[C@@H](C)[C@@]2(O)[C@@H](C=C(CO)C[C@]3(O)C(=O)C(C)=C[C@@H]23)[C@@H]2C(C)(C)[C@]12OC(C)=O` [PMA, phorbol 12-myristate 13-acetate] as the compound, how does the “IC50 in cytotoxicity and apoptosis tests” value (HepG2 cells [1]; HepG2 cells, trypan blue, MTT, Cell Death ELISA, 18 h and 40 h, stated concentration well below measured IC50) read?
A: > 0.05 µg/mL

Q: What does the source list for `CC[C@@]1(O)C(=O)OCc2c1cc1n(c2=O)Cc2cc3ccccc3nc2-1` [camptothecin]?
A: expression of isoform MACH-α1 [2]: decrease; expression of isoform MACH-α3 [2]: increase; fas receptor isoform pattern (FASR isoforms; camptothecin 1 μg/ml): induces a decrease in the wild type form of the fas receptor, replaced by expression of a shorter isoform which may correspond to Fas ΔTM; IC50 ([3]; HepG2 hepatocyte cells): > 1 µg/mL; bcl-X isoform pattern (bcl-X isoforms; camptothecin 1 μg/ml): induces the appearance of a new bcl-X isoform

Q: Which results are given for `CCO` [ethanol]?
A: RNA splicing signatures (A/B and B/A signals versus A/A) (HepG2 cells [4]): can induce a reprogramming of RNA splicing events; fas receptor isoform pattern (FASR isoforms; ethanol 0.1 M): induces an increase in the long wild type form of the fas receptor at the expense of the shorter isoform; cytotoxicity and DNA degradation (HepG2 cells [1]): signs of cytotoxicity and DNA degradation via internucleosomal fragmentation; IC50 [3]: > 100 mM; bcl-X isoform pattern (bcl-X isoforms; ethanol 0.1 M): induces the disappearance of bcl-x which is replaced by a shorter isoform
